Measurements taken from patent US20200360386A1, “Inhibitors of HSP90, PI3-Kinase, Proteasome, HDAC, and P97 Pathways for Selective Removal of Senescent Cells in the Treatment of Age Related Conditions” (Unity Biotechnology, Inc., priority 2017, published 2020).
Values belong to the compound of their own block, whether it stands above or below them.

Assays:
Assay type in all cases: in vivo, mouse
[1] = tested on: 3MR or INK-ATTAC mice exposed to cigarette smoke; experiment: Cigarette smoke induced COPD model, oxygen saturation by pulse oximeter; settings: after two months of cigarette smoke exposure, compared with untreated controls; FIG. 6
Method: As a model for chronic obstructive pulmonary disease (COPD), mice were exposed to cigarette smoke. The effect of a senolytic agent on the mice exposed to smoke is assessed by senescent cell clearance, lung function, and histopathology.
The mice used in this study include the 3MR strain, described in US 2017/0027139 A1 and in Demaria et al., Dev Cell. 2014 Dec. 22; 31 (6): 722-733. The 3MR mouse has a transgene encoding thymidine kinase that converts the prodrug gancyclovir (GCV) to a compound that is lethal to cells. The enzyme in the transgene is placed under control of the p16 promoter, which causes it to be specifically expressed in senescent cells. Treatment of the mice with GCV eliminates senescent cells.
Other mice used in this study include the INK-ATTAC strain, described in US 2015/0296755 A1 and in Baker et al., Nature 2011 Nov. 2; 479 (7372):232-236. The INK-ATTAC mouse has a transgene encoding switchable caspase 8 under control of the p16 promoter. The caspase 8 can be activated by treating the mice with the switch compound AP20187, whereupon the caspase 8 directly induces apoptosis in senescent cells, eliminating them from the mouse.
To conduct the experiment, six-week-old 3MR (n=35) or INK-ATTAC (n=35) mice were chronically exposed to cigarette smoke generated from a Teague TE-10 system, an automatically-controlled cigarette smoking machine that produces a combination of side-stream and mainstream cigarette smoke in a chamber, which is transported to a collecting and mixing chamber where varying amounts of air is mixed with the smoke mixture. The COPD protocol was adapted from the COPD core facility at Johns Hopkins University (Rangasamy et al., 2004, J. Clin. Invest. 114:1248-1259; Yao et al., 2012, J. Clin. Invest. 122:2032-2045).
Mice received a total of 6 hours of cigarette smoke exposure per day, 5 days a week for 6 months. Each lighted cigarette (3R4F research cigarettes containing 10.9 mg of total particulate matter (TPM), 9.4 mg of tar, and 0.726 mg of nicotine, and 11.9 mg carbon monoxide per cigarette [University of Kentucky, Lexington, Ky.]) was puffed for 2 seconds and once every minute for a total of 8 puffs, with the flow rate of 1.05 L/min, to provide a standard puff of 35 cm^3. […] The smoke chamber atmosphere was monitored for total suspended particulates (80-120 mg/m3) and carbon monoxide (350 ppm). […]
After two months of cigarette smoke (CS) exposure, lung function was assessed by monitoring oxygen saturation using the MouseSTAT PhysioSuite™ pulse oximeter (Kent Scientific). […] Mice were monitored for 30 seconds and the average peripheral capillary oxygen saturation (SpO2) measurement over this duration was calculated.

[2] = tested on: C57BL/6J mice, osteoarthritis induced by ACL surgery; experiment: Osteoarthritis model: anterior cruciate ligament surgery, intra-articular treatment
Method: The model was implemented as follows. C57BL/6J mice underwent surgery to cut the anterior cruciate ligament of one rear limb to induce osteoarthritis in the joint of that limb. During week 3 and week 4 post-surgery, the mice were treated with 5.8 μg of Nutlin-3A (n=7) per operated knee by intra-articular injection, q.o.d. for 2 weeks. At the end of 4 weeks post-surgery, joints of the mice were monitored for presence of senescent cells, assessed for function, monitored for markers of inflammation, and underwent histological assessment.
Two control groups of mice were included in the studies performed: one group comprising C57BL/6J or 3MR mice that had undergone a sham surgery (n=3) (i.e., surgical procedures followed except for cutting the ACL) and intra-articular injections of vehicle parallel to the GCV (gancyclovir) treated group; and one group comprising C57BL/6J or 3MR mice that had undergone an ACL surgery and received intra-articular injections of vehicle (n=5) parallel to the GCV-treated group. RNA from the operated joints of mice from the Nutlin-3A treated mice was analyzed for expression of SASP factors (mmp3, IL-6) and senescence markers (p16). qRT-PCR was performed to detect mRNA levels.
Function of the limbs was assessed 4 weeks post-surgery by a weight bearing test to determine which leg the mice favored. The mice were allowed to acclimate to the chamber on at least three occasions prior to taking measurements. Mice were maneuvered inside the chamber to stand with one hind paw on each scale. The weight that was placed on each hind limb was measured over a three second period. At least three separate measurements were made for each animal at each time point. The results were expressed as the percentage of the weight placed on the operated limb versus the contralateral unoperated limb.

[3] = tested on: LDLR-/- mice fed a high fat diet; experiment: Atherosclerosis model: LDLR-/- mice on high fat diet, systemic treatment
Method: This example illustrates the testing of an MDM2 inhibitor in a mouse model for treatment of atherosclerosis. The test compounds are administered systemically rather than locally. The model is done in an LDLR−/− strain of mice, which are deficient in the receptor for low-density lipoprotein. The experiments described here can be adapted mutatis mutandis to test and develop other types of inhibitors for use in clinical therapy.
Two groups of LDLR−/− mice (10 weeks) are fed a high fat diet (HFD) (Harlan Teklad TD.88137) having 42% calories from fat, beginning at Week 0 and throughout the study. Two groups of LDLR−/− mice (10 weeks) are fed normal chow (−HFD). From weeks 0-2, one group of HFD mice and −HFD mice are treated with Nutlin-3A (25 mg/kg, intraperitoneally). One treatment cycle is 14 days treatment, 14 days off. Vehicle is administered to one group of HFD mice and one group of −HFD mice. At week 4 (timepoint 1), one group of mice are sacrificed and to assess presence of senescent cells in the plaques. For the some of the remaining mice, Nutlin-3A and vehicle administration is repeated from weeks 4-6. At week 8 (timepoint 2), the mice are sacrificed and to assess presence of senescent cells in the plaques. The remaining mice are treated with Nutlin-3A or vehicle from weeks 8-10. At week 12 (timepoint 3), the mice are sacrificed and to assess the level of plaque and the number of senescent cells in the plaques.
Plasma lipid levels were measured in LDLR−/− mice fed a HFD and treated with Nutlin-3A or vehicle at timepoint 1 as compared with mice fed a −HFD (n=3 per group). Plasma was collected mid-afternoon and analyzed for circulating lipids and lipoproteins.
At the end of timepoint 1, LDLR−/− mice fed a HFD and treated with Nutlin-3A or vehicle were sacrificed (n=3, all groups), and the aortic arches were dissected for RT-PCR analysis of SASP factors and senescent cell markers. Values were normalized to GAPDH and expressed as fold-change versus age-matched, vehicle-treated LDLR−/− mice on a normal diet.
At the end of timepoint 2, LDLR−/− mice fed a HFD and treated with Nutlin-3A or vehicle (n=3 for all groups) were sacrificed, and aortic arches were dissected for RT-PCR analysis of SASP factors and senescent cell markers. Values were normalized to GAPDH and expressed as fold-change versus age-matched, vehicle-treated LDLR−/− mice on a normal diet.
At the end of timepoint 3, LDLR−/− mice fed a HFD and treated with Nutlin-3A or vehicle (n=3 for all groups) were sacrificed, and aortas were dissected and stained with Sudan IV to detect the presence of lipid. Body composition of the mice was analyzed by MRI, and circulating blood cells were counted by Hemavet™.

SMILES: CC1(C)CCC(c2ccc(Cl)cc2)=C(CN2CCN(c3ccc(C(=O)NS(=O)(=O)c4ccc(N[C@H](CCN5CCOCC5)CSc5ccccc5)c(S(=O)(=O)C(F)(F)F)c4)cc3)CC2)C1 [ABT-263, Navitoclax]
SpO2 levels (peripheral capillary oxygen saturation) [1]: statistically significant increases

SMILES: CC[C@H](C(=O)N1CCCC[C@H]1C(=O)O[C@H](CCc1ccc(OC)c(OC)c1)c1cccc(OCC(=O)NCC(CNC(=O)COc2cccc([C@@H](CCc3ccc(OC)c(OC)c3)OC(=O)[C@@H]3CCCCN3C(=O)[C@@H](CC)c3cc(OC)c(OC)c(OC)c3)c2)CN(C)C)c1)c1cc(OC)c(OC)c(OC)c1 [AP2018]
SpO2 levels (peripheral capillary oxygen saturation) [1]: statistically significant increases

platelet and lymphocyte counts versus vehicle treated mice ([3]; timepoint 3 (week 12), Hemavet): equivalent
SMILES: COc1ccc(C2=N[C@@H](c3ccc(Cl)cc3)[C@@H](c3ccc(Cl)cc3)N2C(=O)N2CCNC(=O)C2)c(OC(C)C)c1 [Nutlin-3A]
expression of p16 in the joint tissue (qRT-PCR) ([2]; 5.8 μg per operated knee intra-articular q.o.d. for 2 weeks, 4 weeks post-surgery, FIG. 3A): reduced the expression back to below the level of the controls
expression of IL-6 in the joint tissue (qRT-PCR) ([2]; 5.8 μg per operated knee intra-articular q.o.d. for 2 weeks, 4 weeks post-surgery, FIG. 3B): reduced the expression back to below the level of the controls
expression of MMP13 in the joint tissue (qRT-PCR) ([2]; 5.8 μg per operated knee intra-articular q.o.d. for 2 weeks, 4 weeks post-surgery, FIG. 3C): reduced the expression back to below the level of the controls
weight bearing test: favoring of the unoperated hind limb over the operated hind limb ([2]; 4 weeks post-surgery, FIG. 4A): abrogated this effect
histopathology: destruction of the proteoglycan layer of the joint ([2]; FIGS. 4B-4D): completely abrogated this effect
expression of SASP factors and senescent cell markers in aortic arch (RT-PCR): MMP3, MMP13, PAI1, p21, IGFBP2, IL-1A, IL-1B ([3]; 25 mg/kg intraperitoneally, timepoint 1 (week 4), after one treatment cycle): reduced expression of several SASP factors and senescent cell markers
expression of SASP factors and senescent cell markers in aortic arch (RT-PCR) ([3]; 25 mg/kg intraperitoneally, timepoint 2 (week 8), multiple treatment cycles): reduced expression of most markers
reduction of surface area covered by plaques in the descending aorta ([3]; 25 mg/kg intraperitoneally, timepoint 3 (week 12), Sudan IV staining, FIG. 7): about 45%
mass and body fat composition ([3]; timepoint 3 (week 12), MRI, mice fed the high fat diet): decreased mass and body fat composition
SpO2 levels (peripheral capillary oxygen saturation) [1]: statistically significant increases

SMILES: Nc1nc(O)c2ncn(COC(CO)CO)c2n1 [ganciclovir]
SpO2 levels (peripheral capillary oxygen saturation) [1]: statistically significant increases
